Tested on: Human neonate-derived fibroblasts
Assay: Collagen synthesis-promoting activity on human fibroblasts (3H-glycine incorporation)
Assay type: cell-based
Settings: 300 μmol/l
Experimental: 201-271, Kodansha Scientific (1986).
Human neonate-derived fibroblasts (Sanko Junyaku Co., Ltd.) were suspended in DMEM containing 10% fetal bovine serum [Virology, 8, 396 (1959)] and cultured at 37° C. in 5% CO2 to the stationary phase. To the resulting culture were added ^3H-labeled glycine and a test substance, followed by further culturing for 72 hours. After 500 μmol/l phenylmethanesulfonyl fluoride (PMSF) was added to the obtained culture, the cells and the medium were collected, followed by disruption with a sonicator to extract proteins. To the extract were added 100 μmol/l bovine serum albumin (BSA) and 10% trichloroacetic acid (TCA), and the resulting mixture was centrifuged at 3000 rpm for 5 minutes to collect the precipitate. […]
After the reaction mixture was separated by ultrafiltration (molecular weight: 10,000), the radioactivity of the protein fraction in the filtrate (CDP) was measured as the amount of newly synthesized collagen. Then, the radioactivity of the protein fraction which was not filtered (NCDP) was measured, and the collagen synthesis ratio was calculated according to equation 2. The relative collagen synthesis-promoting activity (the change in collagen synthesis) was calculated according to equation 3 as the relative value of the collagen synthesis ratio in the presence of a test substance based on the control. […]

Structure (SMILES): Oc1cc(O)c2c(c1)O[C@H](c1ccc(O)c(O)c1)[C@H](O)[C@H]2c1c(O)cc(O)c2c1O[C@H](c1ccc(O)c(O)c1)[C@H](O)C2 [PB2, procyanidin B-2 [epicatechin-(4β→8)-epicatechin]]
- Amount of collagen synthesized compared with control (in words): increased

— patent publication US20030211183A1, “Skin-improving agent” (Kyowa Hakko Kogyo Co., Ltd., priority 1999, published 2003)
